Laboratory results as given in patent publication US10335503B2, “Compound that specifically binds to AMPA receptor” (Public University Corporation Yokohama City University, priority 2015, dated 2019).

Columns and labels:
[1] = LC-MS/MS experiment: accumulation of compound in hippocampal tissue; type: in vivo; settings: rat, 15 minutes from administration, compared among five compounds (FIG. 1)
Experimental: (§1) In the LC-MS/MS experiment, all of the synthesized compounds were dissolved in 100% DMSO so as to have a concentration of 2.5 mM, diluted with physiological saline water immediately before administration (PEPA (1.2 pmol/g), M-1 (12 pmol/g), K-2 (12 pmol/g), M-3 (60 pmol/g), and M-2 (240 pmol/g)), and administered by the parenteral route. In the electrophysiological experiment, PEPA and K-2 were dissolved in 100% DMSO so as to have a concentration of 150 mM, diluted with ACSF as a reflux liquid immediately before the experiment so as to have a concentration of 150 μM and then used. […]
The LC-MS/MS experiment and the biochemical experiment were performed after a rat was allowed to get to sleep by inhalation of isoflurane while anesthesia was maintained using a dedicate carburetor at a concentration of 1.5%. […] In the LC-MS/MS experiment, the hippocampus region was collected in a thickness of approximately 2 mm from the extracted whole brain using Brain matrix (ASI instruments, U.S.), the tissue weight thereof was measured, and then the hippocampus region was put into a 1.5-ml conical tube. […]
As for the preliminary reviewing of measurement conditions, an optimal dilution solvent and an optimal dilution magnification for each compound were determined using the hippocampal tissue (Table 4). […]

AMPA receptor [2] = assay: Electrophysiological experiment: AMPA current by whole-cell recording in acute hippocampus section; type: cell-based, rat; settings: 150 μM in ACSF for 15 minutes, CA1 pyramidal cell, ground state converted as 1
Experimental: as §1
A 7- to 8-week-old male SD rat was used. […] The section was left to stand still in ACSF at room temperature for 60 minutes, and then the AMPA current was measured by a whole-cell recording method. 100 μM of picrotoxin and 100 μM of DL-APV were administered under the condition that the ACSF was refluxed at a rate of 3 ml/min, and then only the AMPA current was isolated and measured.
The recording electrode was placed on a pyramidal cell in CA1, and the exciting electrode was placed on the Schaffer fiber separated away from the recording cell by 100 to 200 μm. […] The AMPA current in the ground state was recorded for 5 minutes, reflux was thereafter performed using ACSF added with PEPA or K-2 for 15 minutes, and then the AMPA current was recorded in the reflux liquid not containing PEPA or K-2 for 30 minutes. […]

AMPA receptor [3] = assay: In vivo PET imaging using rat, with blocking by non-radio-labeled K-2
Experimental: as §1
The PET imaging was performed using micro PET (Focus 220; Siemens Medical Solution). PET imaging experiment using a rat: After the rat was allowed to get to sleep by isoflurane (DS Pharma Animal Health Co., Ltd., Japan), anesthesia was maintained at an isoflurane concentration of 1.5% (air 2 L/min), and then the intravenous line was secured from the tail vein by a 24G Surflo indwelling needle (TERUMO CORPORATION, Japan). The rat was fixed to the PET imaging base, and then radiation imaging for checking the position was performed before imaging. Thereafter, 50% DMSO or K-2 dissolved in 50% DMSO was administered by the parenteral route, and after 3 minutes from administration, the radio-labeled K-2 (about 4 MBq) was administered. During the PET imaging, the body temperature was maintained to 37±0.5° C. using a feedback type heating plate (BWT-100A; Bio Research Center, Japan). After the imaging, the intravenous line was removed, the administration of isoflurane was stopped, and then the rat was removed from the PET imaging base and returned to the home cage. The rat was raised in the room in which imaging was performed during 1 week after the imaging, and then the rat was returned to the normal rat group rearing room.
(§2) A summation image was constructed and offset was removed therefrom with a 0.5-mm Hanning filter so as to reconstruct a dynamic image. The reconstructed image was analyzed using PMOD image analysis software (PMOD technologies) by combining VOIs including a plurality of regions of the striatum, the hippocampus, the cerebellum, the brain stem, and the like with a region formed on the template MRI image. The calculation value used in quantitative determination was % SUV (% of standardized uptake value) and obtained by the following formula; % SUV=amount of radiation of each tissue surrounded by VOI (MBq)/administered amount of radiation (MBq)×weight (g)

[4] = test system: AMPA receptors (GluA1 to 3); assay: In vivo PET imaging of rat with shRNA against GluA1 to 3 in left striatum, scramble RNA in right striatum; settings: seven rats, shRNA side vs scramble side of striatum
Experimental: The PET imaging was performed using micro PET (Focus 220; Siemens Medical Solution). PET imaging experiment using a rat: After the rat was allowed to get to sleep by isoflurane (DS Pharma Animal Health Co., Ltd., Japan), anesthesia was maintained at an isoflurane concentration of 1.5% (air 2 L/min), and then the intravenous line was secured from the tail vein by a 24G Surflo indwelling needle (TERUMO CORPORATION, Japan). The rat was fixed to the PET imaging base, and then radiation imaging for checking the position was performed before imaging. Thereafter, 50% DMSO or K-2 dissolved in 50% DMSO was administered by the parenteral route, and after 3 minutes from administration, the radio-labeled K-2 (about 4 MBq) was administered. […]
as §2, with “(g) […]” for “(g)”

Row | brain uptake (AMPA receptor [3]; rat, PET, about 4 MBq) | Compound | accumulation of compound in hippocampal tissue [1] | ratio of AMPA current to reference value (AMPA receptor [2]) | BPnd (estimated binding potential) (AMPA receptor [3]; Logan Plot method, blocking using the non-radio-labeled K-2, striatum and hippocampus) | uptake of the brain stem (AMPA receptor [3]; blocking by non-radio-labeled K-2) | degree of loss of specific binding after blocking (AMPA receptor [3]; prior administration of 0.05 mg/kg of non-radio-labeled K-2, compared to 0.5 mg/kg) | specific accumulation of radio-labeled K-2 after blocking (AMPA receptor [3]; prior administration of 0.5 mg/kg of non-radio-labeled K-2, 3 minutes before) | decrease in the PET image value at the shRNA side [4]
1 | – | NC(=O)COc1c(F)cc(SCCNS(=O)(=O)c2ccccc2)cc1F [PEPA, 2-[2,6-Difluoro-4-({2-[(phenylsulfonyl)amino]ethyl}thio)phenoxy]acetamide, reference compound] | highest | 2.4±0.13 | – | – | – | – | –
2 | extremely high brain uptake | [11CH3]N(CCSc1cc(F)c(OCC(N)=O)c(F)c1)S(=O)(=O)c1ccccc1 [Radio-labeled K-2, {4-[2-(Benzenesulfonyl-[^11C]Methyl-Amino)-Ethylsulfanil]-2,6-Difluoro-Phenoxy}-Acetamide] | – | – | significantly lowered | not changed by blocking | small | lost | about 30%
